Experimental data as given in patent publication US20210045385A1, “PYRIDAZINONE-SUBSTITUTED KETOXIMES AS HERBICIDES” (FMC Corporation, priority 2018, published 2021).

Experiments:
Assay type in all cases: in vivo
[1] = system: Italian ryegrass (Lolium mutiflorum); experiment: Test C preemergence, visual plant response rating
How it was run: (§1)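 Seeds sown in a loam–sand blend got a directed preemergence soil spray; postemergence plants (2–10 cm, one- to two-leaf stage) were sprayed with compound in a non-phytotoxic solvent plus surfactant. Injury was scored visually against untreated controls after about 10 d in a greenhouse on a 0–100 scale (100 = complete control).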

[2] = system: barnyardgrass (Echinochloa crus-galli); experiment: Test C preemergence, visual plant response rating
How it was run: as §1

[3] = system: foxtail, green (green foxtail, Setaria viridis); experiment: Test C preemergence, visual plant response rating
How it was run: as §1

[4] = system: kochia (Bassia scoparia); experiment: Test C preemergence, visual plant response rating
How it was run: as §1

[5] = system: pigweed (Amaranthus retroflexus); experiment: Test C preemergence, visual plant response rating
How it was run: as §1

[6] = system: ragweed (common ragweed, Ambrosia artemisiifolia); experiment: Test C preemergence, visual plant response rating
How it was run: as §1

[7] = system: Italian ryegrass (Lolium mutiflorum); experiment: Test C postemergence, visual plant response rating; conditions: Test C, postemergence
How it was run: as §1

[8] = system: barnyardgrass (Echinochloa crus-galli); experiment: Test C postemergence, visual plant response rating; conditions: Test C, postemergence
How it was run: as §1

[9] = system: blackgrass (Alopecurus myosuroides); experiment: Test C postemergence, visual plant response rating; conditions: Test C, postemergence
How it was run: as §1

[10] = system: corn (Zea mays); experiment: Test C postemergence, visual plant response rating; conditions: Test C, postemergence
How it was run: as §1

[11] = system: foxtail, green (green foxtail, Setaria viridis); experiment: Test C postemergence, visual plant response rating
How it was run: as §1

[12] = system: kochia (Bassia scoparia); experiment: Test C postemergence, visual plant response rating; conditions: Test C, postemergence
How it was run: as §1

[13] = system: pigweed (Amaranthus retroflexus); experiment: Test C postemergence, visual plant response rating; conditions: Test C, postemergence
How it was run: as §1

[14] = system: ragweed (common ragweed, Ambrosia artemisiifolia); experiment: Test C postemergence, visual plant response rating; conditions: Test C, postemergence
How it was run: as §1

[15] = system: wheat (Triticum aestivum); experiment: Test C postemergence, visual plant response rating; conditions: Test C, postemergence
How it was run: as §1

[16] = system: barnyardgrass (Echinochloa crus-galli); experiment: Test D flooded paddy test, visual plant response rating; conditions: 250 g ai/ha, scale 0 to 100 (0 no effect, 100 complete control), 13 to 15 d
How it was run: (§2)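 Plants grown to the 2-leaf stage; pots flooded to 3 cm above soil and compound applied directly into paddy water, depth held throughout. Kept in greenhouse 13 to 15 d, then rated visually against untreated controls on a 0–100 scale (0 no effect, 100 complete control).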

[17] = system: duck salad (Heteranthera limosa); experiment: as above; conditions: 250 g ai/ha, scale 0 to 100 (0 no effect, 100 complete control), 13 to 15 d
How it was run: as §2

[18] = system: rice (Oryza sativa); experiment: as above; conditions: 250 g ai/ha, scale 0 to 100 (0 no effect, 100 complete control), 13 to 15 d
How it was run: as §2

[19] = system: sedge umbrella (small-flower umbrella sedge, Cyperus difformis); experiment: as above; conditions: 250 g ai/ha, scale 0 to 100 (0 no effect, 100 complete control), 13 to 15 d
How it was run: as §2

Compound | Ryegrass, Italian plant response rating (0 to 100 scale) ([1]; 500 g ai/ha) | Barnyardgrass plant response rating (0 to 100 scale) ([2]; 500 g ai/ha) | Foxtail, Green plant response rating (0 to 100 scale) ([3]; 500 g ai/ha) | Kochia plant response rating (0 to 100 scale) ([4]; 500 g ai/ha) | Pigweed plant response rating (0 to 100 scale) ([5]; 500 g ai/ha) | Ragweed plant response rating (0 to 100 scale) ([6]; 500 g ai/ha) | Ryegrass, Italian plant response rating (0 to 100 scale) ([7]; 500 g ai/ha) | Barnyardgrass plant response rating (0 to 100 scale) ([8]; 500 g ai/ha) | Blackgrass plant response rating (0 to 100 scale) ([9]; 500 g ai/ha) | Corn plant response rating (0 to 100 scale) ([10]; 500 g ai/ha) | Foxtail, Green plant response rating (0 to 100 scale) ([11]; 500 g ai/ha) | Kochia plant response rating (0 to 100 scale) ([12]; 500 g ai/ha) | Pigweed plant response rating (0 to 100 scale) ([13]; 500 g ai/ha) | Ragweed plant response rating (0 to 100 scale) ([14]; 500 g ai/ha) | Wheat plant response rating (0 to 100 scale) ([15]; 500 g ai/ha) | other results
Cc1nn(C)c(=O)c(/C(=N/OCc2ccccc2)c2cccc(Cl)c2)c1O [Compound 150] | 0 | 0 | 0 | 0 | 0 | 80 | 10 | 0 | 0 | 0 | 0 | 0 | 0 | 20 | 0 | 
Cc1nn(C)c(=O)c(/C(=N\OCc2ccccc2)c2cccc(Cl)c2)c1O [Compound 149] | 0 | 0 | 0 | 0 | 20 | 0 | 10 | 0 | 0 | 0 | 0 | 0 | 0 | 0 | 0 | Ryegrass, Italian plant response rating (0 to 100 scale) ([1]; 125 g ai/ha): 0; Barnyardgrass plant response rating (0 to 100 scale) ([2]; 125 g ai/ha): 0; Foxtail, Green plant response rating (0 to 100 scale) ([3]; 125 g ai/ha): 0; Kochia plant response rating (0 to 100 scale) ([4]; 125 g ai/ha): 0; Pigweed plant response rating (0 to 100 scale) ([5]; 125 g ai/ha): 0; Ragweed plant response rating (0 to 100 scale) ([6]; 125 g ai/ha): 0; Ryegrass, Italian plant response rating (0 to 100 scale) ([7]; 125 g ai/ha): 0; Barnyardgrass plant response rating (0 to 100 scale) ([8]; 125 g ai/ha): 0; Blackgrass plant response rating (0 to 100 scale) ([9]; 125 g ai/ha): 0; Corn plant response rating (0 to 100 scale) ([10]; 125 g ai/ha): 0; Foxtail, Green plant response rating (0 to 100 scale) ([11]; 125 g ai/ha): 0; Kochia plant response rating (0 to 100 scale) ([12]; 125 g ai/ha): 0; Pigweed plant response rating (0 to 100 scale) ([13]; 125 g ai/ha): 0; Ragweed plant response rating (0 to 100 scale) ([14]; 125 g ai/ha): 0; Wheat plant response rating (0 to 100 scale) ([15]; 125 g ai/ha): 0; Plant response rating, Barnyardgrass (Flood) [16]: 0; Plant response rating, Ducksalad (Flood) [17]: 0; Plant response rating, Rice (Flood) [18]: 0; Plant response rating, Sedge, Umbrella (Flood) [19]: 0
